A short description of this data set: Human HepG2 cell viability assay in 384 well format. It counts as toxicity, cell-based. Further details: dose 125 nL, time 70.5 hour; cytotoxicity at 70.5 h: concentration not given beside the values. Conditions: HepG2 cells, read-out: Inhibition.

Molecules are shown by their SMILES.

Take `COc1ccc(-c2nccn2CCN2CCCCC2)c(OC)c1OC`: the cytotoxicity at 70.5 h worked out at 4.66%.
Then `CN(C)CCNc1cc(-c2ncccc2C(F)(F)F)c2cc[nH]c2n1`, with -6.02%.
Then `Cc1cccnc1CN1CCN(Cc2ccc(-c3cc[nH]n3)o2)CC1`, with -7.65%.
Then `O=C1CC(NS(=O)(=O)N2CCOCC2)CN1CCc1ccccc1` (stereo unspecified), with -3.7%.
As for `Cc1ccccc1N1CCCN(C(=O)CN2C(=O)OC[C@@H]2C(C)C)CC1`, the cytotoxicity at 70.5 h turned out to be 25.8%.
`O=C1NCCN2CCN(C(=O)NCCc3ccccc3)CC12` (stereo unspecified): the cytotoxicity at 70.5 h was -9.06%.
Then `CCn1c(CN(C)C)nnc1C1CCN(Cc2ccc(C)s2)CC1`, with -2.28%; and `Cc1ccc(CSc2nc(N)cc(NCCC(N)=O)n2)cc1`, with -0.193%.
Turning to `CN(CCc1ccccn1)C(=O)CCC1CCCN(c2cnccn2)C1` (stereo unspecified), the cytotoxicity at 70.5 h amounted to 2.36%.
For `CN(Cc1nc(-c2ccccc2)no1)C(=O)CNS(C)(=O)=O`, the cytotoxicity at 70.5 h is -8.66%.
Then `Cc1cc(N2CCN(C(=O)[C@@H]3C[C@@H]4C=C[C@H]3C4)CC2)cc(C)n1`, with -15.6%; and `CC(C)[C@@H]1CN(S(=O)(=O)Cc2ccccc2)C[C@H]1C(=O)O`, with -3.52%.
Then `CC(=O)c1cc(CN2C[C@H]3CC[C@@H]2CN(S(C)(=O)=O)C3)cs1`, with 13.8%; and `Cc1nc2c(c(=O)n1C)CN(C(=O)C1CCCN(C(N)=O)C1)C2` (stereo unspecified), with -4.13%.
Under `OC1CCN(CCCNc2nccc(C3CCCC3)n2)CC1` stands -2.73%; under `CC(=O)N1CCN(Cc2ccc(F)c(C(F)(F)F)c2)CC(O)C1` (stereo unspecified), -8.55%; under `CCOCCCNC(=O)C1CCC(=O)N(CCc2ccc(Cl)cc2)C1` (stereo unspecified), -7.25%.
In the case of `CCN1CCN(C(=O)c2cc(C(F)(F)F)n[nH]2)[C@H]2CS(=O)(=O)C[C@H]21`, the cytotoxicity at 70.5 h is -18.6%.
Then `Cc1cccc(=O)n1CCC(=O)N1CC[C@@](O)(C2CCC2)[C@H](C)C1`, with -9.83%; and `O=C1CCC(C(=O)N2CCOC(Cc3cccc4ccccc34)C2)=NN1` (stereo unspecified), with 18.7%.
Turning to `CCOC(=O)CC1CCCCN1C(=O)c1cccc2ccnn12` (stereo unspecified), the cytotoxicity at 70.5 h is -6.11%.
Under `CC(=O)Nc1ccc(CN(C)Cc2snnc2C)cc1` stands -5.27%.
Then `Cc1c[nH]c(CN(C)C(=O)CCn2cnc3ccccc32)n1`, with -1.23%; and `COc1ccc(/C=C/CN2C[C@H]3CC[C@@H]2CN(S(=O)(=O)N(C)C)C3)cc1`, with -5.26%.
Then `Cc1cc(C(=O)N2CC(O)CO2)c2ccc(C)c(C)c2n1` (stereo unspecified), with -6.82%.
Regarding `Cn1nnnc1SCCNC(=O)C1CCN(C(=O)C2CCC2)CC1`, the cytotoxicity at 70.5 h was -5.55%.
For `Fc1ccc2[nH]c(C3CCCN3Cc3c[nH]cn3)nc2c1` (stereo unspecified), the cytotoxicity at 70.5 h is 28.4%.
Under `COc1cccc(Cn2ncnc2COC(C)C)c1` stands -15.5%.
Then `CCOC(=O)CCNC(=O)N1CCCC(CNC(=O)c2cccs2)C1` (stereo unspecified), with -6.29%.
Regarding `COc1ccc2[nH]nc(CN3CCC(C(C)N4CCCC4)CC3)c2c1` (stereo unspecified), the cytotoxicity at 70.5 h is -1.99%.
Under `COCC(Nc1ncnc2c1CCNCC2)c1ccccn1` (stereo unspecified) stands -12.5%; under `Cc1nn(C)c2nc(N(CCN(C)C)CC3CCCO3)sc12` (stereo unspecified), -7.79%; under `CCCc1cc(C(=O)NCCC2=CCCCC2)[nH]n1`, -9.53%.
On to `O=C1NCCN1CCNCC1(O)CCCN(CCC2CCCCC2)C1=O` (stereo unspecified), for which the cytotoxicity at 70.5 h was -4.14%.
Under `CCCn1cc(C(=O)N[C@H]2CC[C@H](n3cnnc3)CC2)c(C)n1` stands 0.742%; under `COc1ccc2cc(CN(C)CCc3cn[nH]c3)c(=O)[nH]c2c1`, -6.43%.
For `CC(O)c1cccc(-n2c(CCC(=O)O)nc3ccccc32)c1` (stereo unspecified), the cytotoxicity at 70.5 h is -8.25%.
Then `COc1nc2ccn(CCNc3cc(C)ccn3)c(=O)c2cc1C#N`, with -3.78%; and `CC(C)CCN(C)C(=O)c1cc(CN2CCC(O)CC2)on1`, with -0.516%.
Under `Cc1nc[nH]c1CN1CCN(C(=O)CN2CCCC2)[C@H]2CS(=O)(=O)C[C@H]21` stands 3.25%; under `COCc1nc(CNC(=O)c2cc(C)c(C)[nH]c2=O)no1`, 2.71%; under `CCc1nccn1CCC(=O)N1CCN(c2ccccc2C)CC1C` (stereo unspecified), -10.2%.
Under `CCCN1CCN(C(=O)c2cc3ccccc3cn2)[C@H]2CS(=O)(=O)C[C@H]21` stands -12%; under `COCc1ccc(C(=O)N2CCC(Oc3ccccc3OC)CC2)s1`, -15%; under `CC(C)CN1CCc2[nH]cnc2C12CCN(C(=O)c1ccnn1C)CC2`, -2.45%.
On to `Cc1nc(CC(=O)N2CCN(CCOc3ccccc3)CC2)cs1`, for which the cytotoxicity at 70.5 h was -10.1%.
Then `c1ccc(CN2CCC(CCNc3ncnc4c3CCNCC4)C2)cc1` (stereo unspecified), with -2.61%; and `CCCN1C(=O)[C@H]2CC[C@@H]1CN(S(=O)(=O)c1cccc(Cl)c1)C2`, with -9.33%; and `CC(C)c1ccc(C#N)c(N2CC(C)(C)[C@@](C)(O)C2)n1`, with -17.8%.
Under `C[C@@H]1CN(C2CCN(Cc3nn(C)c4cccc(Cl)c34)CC2)C[C@H](C)O1` stands 25.7%; under `CC[C@@]1(O)CCN(C(=O)CCc2cnn(C)c2)C[C@H]1O`, -9.56%; under `Cc1n[nH]c(C)c1CN(C)C(C(=O)O)c1ccc2c(c1)OCO2` (stereo unspecified), 6.84%.
With `CC(=O)c1ccc(NC(=O)N(CCN(C)C)Cc2ccc(C)s2)cc1`, the cytotoxicity at 70.5 h was 2.42%.
Then `CCNc1ncc(C(=O)N(C)Cc2nc3ccccc3n2C)cn1`, with -2.99%.
Then `CC(c1ccccc1)n1c(SCC(=O)O)nnc1-c1ccn[nH]1` (stereo unspecified), with -5.88%; and `O=C(O)C1(Oc2ccc3c(c2)OCO3)CCN(C2CCOCC2)CC1`, with -14.1%; and `CC(C)(C)c1noc(-c2nc3c([nH]2)CCCNC3=O)n1`, with -4.9%.
Under `CCCC1COCCN1Cc1ccc(NC(C)=O)cc1` (stereo unspecified) stands -3.46%; under `CCNC(=O)[C@@H]1C[C@@H](NC(=O)c2ccc(C)cc2O)CN1CCCSC`, -3.38%.
`Cc1cc2cccc(C(=O)N3CCOC4(CNCCOC4)C3)c2o1` (stereo unspecified): the cytotoxicity at 70.5 h turned out to be 32.7%.
Under `CCn1nc(C)c(CCNC(=O)C2CCCN(C3CCCC3)C2)c1C` (stereo unspecified) stands 20.4%; under `COc1cccc(N2CCN(CC[C@H](O)c3ccccc3)CC2=O)c1`, -10.7%.
In the case of `CCCC1CCN(C(=O)c2coc(COc3ccc(OC)cc3)n2)C1` (stereo unspecified), the cytotoxicity at 70.5 h was -3.1%.
Under `O=C(Cn1ccnc1)N1CCC(n2cc(-c3cccc(Cl)c3)nn2)CC1` stands 22.5%; under `CCCc1nnc(N2CC[C@](C)(O)[C@H](C)C2)s1`, 8.74%; under `COCCC(=O)N[C@H]1CN(c2nc(C)c3c(n2)CCCC3)C[C@@H]1C1CC1`, -9.64%.
Then `CCC(C(=O)N1CCN(C(=O)N2CCOCC2)CC1)n1cccn1` (stereo unspecified), with -5.93%; and `Cc1c(CN2CC[C@@H](N3CCC(O)CC3)[C@H](O)C2)[nH]c2ccc(F)cc12`, with -2.56%.
Under `CCn1c(CN(C)C)nnc1C1CCN(Cc2cnc(C)nc2)CC1` stands -5.5%.
In the case of `Cc1cccc(-n2ncc3c2CCCC3NCc2cccc(O)c2)c1C` (stereo unspecified), the cytotoxicity at 70.5 h is -3.55%.
With `Cc1ccsc1-c1nccn1CCN(C)S(C)(=O)=O`, the cytotoxicity at 70.5 h is -1.88%.
Under `Cc1ccc2c(c1)SCC(=O)N2CC(=O)N1CCCC1c1nccs1` (stereo unspecified) stands -14%; under `O=C(c1cccnc1O)N1CCCC2(C=Cc3ccccc3O2)CC1` (stereo unspecified), -4.51%.
On to `CNc1ncc(CN(C)C(=O)c2c[nH]nc2-c2cccc(F)c2)cn1`, for which the cytotoxicity at 70.5 h is -6.7%.
With `CC(C)N1CCC(C(=O)N2CCC(C(O)c3nccn3C)CC2)CC1` (stereo unspecified), the cytotoxicity at 70.5 h is -11.2%.
On to `CCOCc1nc(CSc2ccncc2)n(C)n1`, for which the cytotoxicity at 70.5 h was 6.25%.
For the compound `CCOC(=O)N1CCN(C(=O)C2Cc3ccccc3CN2C)CC1` (stereo unspecified), the cytotoxicity at 70.5 h amounted to 2.75%.
Turning to `O=C1CC2(CCCC2)CC(=O)N1Cc1ncccn1`, the cytotoxicity at 70.5 h was found to be 19.8%.
`CCc1oc(C(=O)N2CCC(N(CC)C(C)=O)C2)cc1CN(CC)CC` (stereo unspecified): the cytotoxicity at 70.5 h was -12.3%.
With `Cc1nc(C)n(CC(C)C(=O)N2CCC(NS(C)(=O)=O)CC2)n1` (stereo unspecified), the cytotoxicity at 70.5 h was 34.2%.
Under `CC(C)CS(=O)(=O)CCNC(=O)Nc1cccc2ncccc12` stands 19.9%; under `COc1ccc(C(=O)C2CCCN(Cc3ccccc3O)C2)c(OC)c1` (stereo unspecified), 35.7%; under `COc1cc(C)c(CN2CCC3(CC2)[C@H](O)C[C@@H]3OCCN)cc1C`, 28.1%.
Then `Cc1ccsc1CN(CCN(C)C)C(=O)c1ccccc1C#N`, with -0.2%; and `CCN1CCCC(c2c(-c3ccccc3)ncn2CCCO)C1` (stereo unspecified), with -8.57%; and `CCn1c(C)nnc1SCCNc1cc(N2CCOCC2)ncn1`, with -18.8%.
Under `CC(Cc1ccccn1)N(C)Cc1ccc2c(c1)CCO2` (stereo unspecified) stands -8.85%.
Consider `CCc1cc(CN(C)C(=O)C2CC(=O)N(c3cccc(O)c3)C2)on1` (stereo unspecified), for which the cytotoxicity at 70.5 h is -1.3%.
`COCCC1(CO)CCCN(CCCc2ccccc2)C1` (stereo unspecified): the cytotoxicity at 70.5 h is 22.6%.
Under `O=C(c1csc(-c2ccc(C(F)(F)F)cc2)n1)N1CCCNCC1` stands -2.7%; under `CCC[C@@H]1CN(C(=O)c2ccccc2-c2ccccc2)C[C@H]1N(C)C`, 0.165%; under `CN(C)c1nc2c(c(NCc3cc(O)ncn3)n1)CCCC2`, -4.94%.
Under `CC(C)Nc1cc(N2CCC(n3cc(C4CC4)nn3)CC2)ncn1` stands 23.9%; under `Cc1cccc(CN2CCCC3(CCN(C4CCSCC4)C3)C2=O)c1` (stereo unspecified), 7.94%; under `Cc1nc(CN2CCCCC2CCc2ccc(O)cc2)no1` (stereo unspecified), 6.16%.
With `Cc1ccccc1C1CCCN(C(=O)c2c[nH]c(=O)c(Cl)c2)C1` (stereo unspecified), the cytotoxicity at 70.5 h is -12%.

The values above are taken from ChEMBL document CHEMBL3507680, “University of Dundee, Gates Library screen for HepG2 cell viability”.
